Test results from patent publication US9771405B2, “Nucleic acids encoding for chimeric natriuretic polypeptides with unique pharmacologic profiles” (Mayo Foundation for Medical Education and Research, priority 2008, dated 2017).

Assay: BAA-NP, BUA-NP or human BNP infusion in anesthetized dogs: renal, hemodynamic and neurohumoral measurements
Assay type: in vivo, dog
Details: for net renal generation of cGMP / plasma cGMP / urinary cGMP excretion / urinary sodium excretion / urine flow: 30 and 60 minutes of infusion vs. pre-infusion; for plasma ANP immunoreactivity / plasma CNP immunoreactivity: RIA; for glomerular filtration rate: inulin clearance; for mean arterial pressure / renal perfusion pressure: BNP at equimolar dose; for renal perfusion pressure: mean arterial pressure minus right atrial pressure
Protocol: BAA-NP and BUA-NP were reconstituted in normal saline and were infused at 1 mL/minute. Dogs were maintained on a Na^+-controlled diet (Hill's i/d® canine diet, Hill's Pet Nutrition, Inc., Topeka, Kans.). In the evening before the experiment, the dog was fasted with ad lib access to water and was given lithium carbonate 300 mg orally for assessment of renal tubular function on the next day.
On the day of the experiment, the dog was anesthetized with pentobarbital sodium (induction 6-20 mg/kg i.v., maintenance 5-15 mg/kg/h i.v.) and fentanyl (0.04-0.12 mg/kg i.v., maintenance 0.04-0.18 mg/kg/h), and was intubated and mechanically ventilated (Harvard Apparatus, Holliston, Mass.) with 3 L/minute of 02 (tidal volume 15 mL/kg, 12 cycles/minute). The femoral artery was cannulated for blood pressure monitoring and for blood sampling. The femoral vein was cannulated for infusion of inulin and normal saline. The saphenous vein was cannulated for polypeptide infusion. A balloon-tipped thermodilution catheter (Edwards Lifesciences, Irvine, Calif.) was used for monitoring hemodynamics and body temperature (maintained at 38±1° C.). Cardiac output (CO) was measured in triplicate and averaged (model 9510-A, American Edwards Laboratories, Irvine, Calif.). Hemodynamic data were digitally recorded and analyzed (Sonometrics Corporation, London, ON). The left kidney was exposed via a flank incision. The ureter was cannulated for timed urine collection. An electromagnetic flow probe was placed on the renal artery for measuring renal blood flow (Burnett et al., Am. J. Physiol., 247(5 Pt 2):F863-6 (1984)). A weight-adjusted bolus of inulin was given, followed by an inulin infusion (1 mL/minute) to achieve plasma levels of 40-60 mg/dL (Burnett et al., Am. J. Physiol., 247(5 Pt 2):F863-6 (1984); Chen et al., Am. J. Physiol. Regul. Integr. Comp. Physiol., 288(5):R1093-7 (2005); and Margulies et al., J. Clin. Invest., 88(5):1636-42 (1991)), for measuring GFR by inulin clearance. Normal saline was infused (1 mL/minute) and was temporarily discontinued during peptide infusion (1 mL/minute).
Following equilibration of approximately 60 minutes in duration, the BAA-NP or BUA-NP polypeptide was infused for 75 minutes. Hemodynamic and renal data, as well as blood and urine samples, were collected for each 30-minute clearance: pre-infusion, at 30 and 60 minutes of infusion (time denotes mid-clearance). Inulin clearance was used for measuring glomerular filtration rate (GFR). The lithium clearance technique was used for quantifying proximal and distal fractional reabsorption of Na^+ (PFRNa and DFRNa, respectively).
Plasma and urinary ANP, CNP, and cGMP were measured by radioimmunoassays (RIA) (Chen et al., Am. J. Physiol. Regul. Integr. Comp. Physiol., 288(5):R1093-7 (2005); Burnett et al., Science, 231(4742):1145-7 (1986); Steiner et al., J. Biol. Chem., 247(4):1106-13 (1972); Supaporn et al., Kidney Int., 50(5):1718-25 (1996); and Cataliotti et al., Am. J. Physiol., 283(3):F464-72 (2002)). Plasma renin activity (Haber et al., J. Clin. Endocrinol. Metab., 29(10):1349-55 (1969)), angiotensin II (Luchner et al., Hypertension, 28(3):472-7 (1996)), and aldosterone (Sancho and Haber, J. Clin. Endocrinol. Metab., 47(2):391-6 (1978)) were quantified. Plasma and urinary lithium levels were measured by flame emission spectrophotometry (model 357, Instrumentation Laboratory, Wilmington, Mass.) (Margulies et al., J. Clin. Invest., 88(5):1636-42 (1991)). The lithium clearance technique (CLLi) was used to assess PFRNa and DFRNa as follows (Chen et al., Am. J. Physiol. Regul. Integr. Comp. Physiol., 288(5):R1093-7 (2005)): PFRNa=[1−(CLLi/GFR)]×100 and DFRNa=[(CLLi−CLNa)/CLLi]×100, where CLLi=[urine Li^+]×urine flow/[plasma Li^+] and CLNa=[urine Na^+]×urine flow/[plasma Na^+]. Net renal production of cGMP was determined (Margulies et al., J. Clin. Invest., 88(5):1636-42 (1991)): (urinary cGMP×urine flow rate)−(plasma cGMP×GFR). […]

[1] = anesthetized dogs, i.v. infusion
[2] = anesthetized dogs, i.v. infusion, vs. pre-infusion
[3] = anesthetized dogs, i.v. infusion, lithium clearance technique, vs. pre-infusion
[4] = at 30 minutes of infusion, BNP compared to BAA-NP or BUA-NP, equimolar dose
[5] = at 60 minutes of infusion, BNP compared to BAA-NP or BUA-NP, equimolar dose

Substance | net renal generation of cGMP [1] | plasma cGMP [1] | urinary cGMP excretion [1] | urinary sodium excretion [1] | urine flow [1] | plasma ANP immunoreactivity [2] | plasma CNP immunoreactivity [2] | glomerular filtration rate [2] | distal fractional reabsorption of sodium [3] | proximal fractional reabsorption of sodium [3] | cardiac output [2] | hematocrit (hemoconcentration) [2] | pulmonary arterial pressure [2] | pulmonary capillary pressure [2] | renal blood flow [2] | renal vascular resistance [2] | right atrial pressure [2] | mean arterial pressure [2] | change in renal perfusion pressure from baseline [4] | change in renal perfusion pressure from baseline [5] | further results
SLRRSSCFGRKMDRISSSSG-LGCNSFRY (SLRRSSCFGRKMDRISSSSGLGCNSFRY) [BAA-NP, 28-residue chimeric natriuretic polypeptide: human ANP residues 1-6, human mature BNP residues 10-26, human ANP residues 24-28] | significantly increased | significantly increased | significantly increased | significantly increased | significantly increased | significantly increased | significantly increased | preserved | significantly reduced | significantly reduced | preserved | significant increase | significantly reduced | significantly reduced | significantly enhanced | significantly reduced | significantly reduced | mild decrease | preserved | preserved | plasma aldosterone [2]: significantly suppressed; plasma angiotensin II [2]: significantly suppressed; plasma renin activity [2]: significantly suppressed; urinary excretion of ANP [2]: significantly increased; urinary excretion of CNP [2]: significantly increased; urinary potassium excretion [2]: significantly increased
TAPRSLRRSSCFGRKMDRIS-SSSGLGCNSFRY (TAPRSLRRSSCFGRKMDRISSSSGLGCNSFRY) [BUA-NP, 32-residue chimeric natriuretic polypeptide: human urodilatin residues 1-10, human mature BNP residues 10-26, ANP C-terminus] | significantly increased | significantly increased | significantly increased | significantly increased | significantly increased | significantly increased | significantly increased | preserved | significantly reduced | significantly reduced | preserved | significant increase | significantly reduced | significantly reduced | significantly enhanced | significantly reduced | significantly reduced | mild decrease | preserved | preserved | activation of cGMP (BUA-NP compared with BAA-NP): greater activation; distal fractional reabsorption of sodium (BUA-NP compared with BAA-NP): greater reductions; natriuresis and diuresis (BUA-NP compared with BAA-NP): enhanced; proximal fractional reabsorption of sodium (BUA-NP compared with BAA-NP): greater reductions; renal perfusion pressure [2]: preserved; urinary potassium excretion [2]: significantly increased
human BNP: human BNP natriuretic polypeptide, comparator infused at equimolar dose [reference compound] | – | – | – | – | – | – | – | – | – | – | – | – | – | – | – | – | – | significantly reduced | significantly greater decreases | significantly greater decreases | renal perfusion pressure [2]: significantly reduced; change in mean arterial pressure from baseline [4]: significantly greater reduction; change in mean arterial pressure from baseline (at 60 minutes of infusion, BNP versus BAA-NP): greater decrease
